From patent publication EP3498273A1, “PHARMACEUTICAL COMPOSITION FOR MODULATING THE RESPONSE OF A GABA-A RECEPTOR” (Universität Wien, priority 2017, dated 2019)

Tests used:
[1] = target: GABAA receptors composed of α1β2γ2S subunits (Homo sapiens, UniProt P14867+P47870); assay: Two-microelectrode voltage clamp: IGABA enhancement in Xenopus laevis oocytes
[2] = test system: male C57BL/6N mice; assay: Seizure threshold upon pentylenetetrazole (PTZ) tail-vein infusion; format: in vivo; conditions: intraperitoneal, 30 min before the test, n = 4, control 39.5 ± 0.8
Procedure: Only male C57BL/6N mice (age 3-6 months) were used for determination of the seizure threshold. Intraperitoneal injection of control or compound-containing solutions was done 30 min before the test. Indicated doses in the results represent milligrams per kilogram body weight. Seizure threshold was determined by pentylenetetrazole (PTZ) tail-vein infusion on freely moving animals at a rate of 100 µl/min (10 mg/ml PTZ in saline, pH = 7.4). […] Animals were immediately killed by cervical displacement after onset of seizures. The seizure threshold dose was calculated from the infused dose in relation to body weight (mg/kg).

[3] = test system: native GABAA receptors, primary cultures of dissociated hippocampal neurons; assay: Whole-cell patch clamp on cultured hippocampal neurons (miniature IPSCs and tonic currents); format: cell-based; conditions: 10 µM compound, holding potential -70 mV
[4] = target: GABAA receptors composed of α1β1γ2S subunits (Homo sapiens, UniProt P14867+P18505); assay: Two-microelectrode voltage clamp: IGABA enhancement in Xenopus laevis oocytes; conditions: replacing β2/3 by β1; Emax and EC50 not determined
Chain of GABAA receptors composed of α1β1γ2S subunits (P14867 28-456): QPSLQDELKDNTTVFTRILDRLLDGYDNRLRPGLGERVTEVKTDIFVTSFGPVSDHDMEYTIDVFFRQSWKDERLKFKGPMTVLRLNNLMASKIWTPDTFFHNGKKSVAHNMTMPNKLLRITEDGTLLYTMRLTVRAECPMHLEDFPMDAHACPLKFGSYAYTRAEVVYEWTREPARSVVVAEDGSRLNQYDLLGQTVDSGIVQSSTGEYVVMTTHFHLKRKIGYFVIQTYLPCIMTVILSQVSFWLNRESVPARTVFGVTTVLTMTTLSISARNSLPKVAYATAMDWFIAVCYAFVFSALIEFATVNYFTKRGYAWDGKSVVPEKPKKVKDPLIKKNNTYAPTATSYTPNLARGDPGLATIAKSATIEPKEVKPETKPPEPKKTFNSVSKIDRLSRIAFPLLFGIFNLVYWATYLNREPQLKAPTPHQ
Chain of GABAA receptors composed of α1β1γ2S subunits (P18505 26-474): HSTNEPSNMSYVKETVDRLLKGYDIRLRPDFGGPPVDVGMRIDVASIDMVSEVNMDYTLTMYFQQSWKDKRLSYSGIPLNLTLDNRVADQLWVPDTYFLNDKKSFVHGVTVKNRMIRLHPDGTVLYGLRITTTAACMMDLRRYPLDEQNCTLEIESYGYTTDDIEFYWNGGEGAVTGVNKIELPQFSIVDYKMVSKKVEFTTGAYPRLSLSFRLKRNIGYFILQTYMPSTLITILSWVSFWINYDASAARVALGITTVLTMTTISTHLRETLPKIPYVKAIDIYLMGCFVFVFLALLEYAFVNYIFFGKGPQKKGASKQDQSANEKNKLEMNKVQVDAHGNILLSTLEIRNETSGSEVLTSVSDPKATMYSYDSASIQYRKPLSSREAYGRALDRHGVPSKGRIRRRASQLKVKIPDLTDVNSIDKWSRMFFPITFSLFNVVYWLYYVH
Chain of GABAA receptors composed of α1β1γ2S subunits (P18507 40-467 isoform P18507-1 partner limits assumed): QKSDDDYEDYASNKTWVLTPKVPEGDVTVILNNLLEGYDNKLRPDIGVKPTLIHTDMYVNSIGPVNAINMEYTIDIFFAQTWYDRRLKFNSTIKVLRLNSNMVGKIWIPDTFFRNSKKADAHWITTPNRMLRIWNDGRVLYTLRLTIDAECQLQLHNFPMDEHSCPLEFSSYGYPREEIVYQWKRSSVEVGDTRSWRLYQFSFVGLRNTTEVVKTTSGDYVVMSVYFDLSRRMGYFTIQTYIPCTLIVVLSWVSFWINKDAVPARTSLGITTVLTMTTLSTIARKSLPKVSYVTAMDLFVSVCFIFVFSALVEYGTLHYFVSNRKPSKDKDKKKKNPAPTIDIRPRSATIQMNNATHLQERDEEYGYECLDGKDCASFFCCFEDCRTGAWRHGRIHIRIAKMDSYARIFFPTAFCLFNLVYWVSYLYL

Chain of GABAA receptors composed of α1β2γ2S subunits (P14867 28-456): as the sequence (P14867 28-456) above
Chain of GABAA receptors composed of α1β2γ2S subunits (P47870 26-474 isoform P47870-1 limits assumed): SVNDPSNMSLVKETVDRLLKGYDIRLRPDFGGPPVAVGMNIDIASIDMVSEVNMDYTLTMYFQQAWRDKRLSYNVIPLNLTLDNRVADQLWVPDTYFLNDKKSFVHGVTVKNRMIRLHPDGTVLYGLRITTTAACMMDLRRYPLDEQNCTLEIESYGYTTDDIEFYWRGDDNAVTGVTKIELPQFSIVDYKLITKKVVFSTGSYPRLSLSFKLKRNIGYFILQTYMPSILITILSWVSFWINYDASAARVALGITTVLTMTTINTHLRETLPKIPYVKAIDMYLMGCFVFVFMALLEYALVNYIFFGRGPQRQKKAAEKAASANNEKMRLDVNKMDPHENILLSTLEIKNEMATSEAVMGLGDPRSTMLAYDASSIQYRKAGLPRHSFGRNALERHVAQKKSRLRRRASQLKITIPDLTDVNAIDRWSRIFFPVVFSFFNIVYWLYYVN
Chain of GABAA receptors composed of α1β2γ2S subunits (P18507 40-467 isoform P18507-1 partner limits assumed): as the sequence (P18507 40-467 isoform P18507-1 partner limits assumed) above

C/C(=C/C#N)c1ccc(Cl)cc1Cl [Compound Z-2, (2Z)-3-(2,4-dichlorophenyl)but-2-enenitrile]
EC50 [1]: 9.9 ± 2.5 µM | Emax ([1]; second β2/3 channel of Fig. 1B, printed as α1β3γ2S, n = 3, no unit at this value): 1804.9 ± 153.0% | seizure threshold ([2]; 0.1 mg/kg body weight): 48.5 ± 2.3 mg/kg PTZ | seizure threshold ([2]; 0.3 mg/kg body weight): 52.3±1.6 mg/kg PTZ | amplitude of mIPSCs [3]: no effect | frequency of mIPSCs [3]: no effect | holding currents [3]: shifted towards more negative values | decay of mIPSCS (normalized) ([3]; compared to control, n=5): 213.8 ± 41.0% | sensitivity of the resulting GABAA channels [4]: drastically reduced the sensitivity
